Where “and” joins values, the source holds several entries; their conditions need not be identical. Equal entries are not always repeated. Inconclusive results and toxic doses are left out. Starred links: 1 amine or outer side, 2 acyl side, 3 side chain; linkers in the order of their positions; H or OH if unused. Positions of bridges follow the written chain, without caps; N, C: chain ends. Non-standard residues stand in square brackets, D forms with d. Residues, ends and D or L forms follow the SMILES beside them. Chains are numbered I, II in the order given. Actinocin(9to1) = Cc1c2oc3c(C)ccc(C(=O)[*:1])c3nc-2c(C(=O)[*:2])c(N)c1=O; aThr = C[C@H](O)[C@H](N)C(=O)O; NMeV = CN[C@H](C(=O)O)C(C)C; Sar = CNCC(=O)O

In the assay the test system is Lymphosarcoma Mecca ip in C3AKF1 mice, survival T/C%. In words: NCI In Vivo Anticancer Drug Screen. Data for tumor model Lymphosarcoma Mecca (intraperitoneal) in C3AKF1 (CHKRF1) mice. The following applies: endpoint: survival time, mean or median, schedule: Q01DX010 (ip), higher = longer survival. The method, then: The antitumor activity of compounds was measured in mice bearing transplantable tumors. Survival or tumor size were measured and the results are expressed as the measurement made in the treated group (T) divided by the measurement made in the vehicle treated control group (C). The tumor model used in this assay is Lymphosarcoma Mecca (intraperitoneal) in C3AKF1 (CHKRF1) mice

[1] abbreviates: dose: 31.3 mg/kg/injection, vehicle: saline.
Where [2] appears, read: dose: 62.5 mg/kg/injection, vehicle: saline.
The mark [3] stands for this setting: dose: 125.0 mg/kg/injection, vehicle: saline.
The mark [4] stands for this setting: dose: 250.0 mg/kg/injection, vehicle: saline.
Where [5] appears, read: dose: 0.5 mg/kg/injection, vehicle: saline.
Where [6] appears, read: dose: 1.0 mg/kg/injection, vehicle: saline.
Setting [7] is: dose: 4.0 mg/kg/injection, vehicle: saline.
Where [8] appears, read: dose: 25.0 mg/kg/injection, vehicle: saline.
[9] abbreviates: dose: 50.0 mg/kg/injection, vehicle: saline.
[10] abbreviates: dose: 100.0 mg/kg/injection, vehicle: saline.
Where [11] appears, read: dose: 200.0 mg/kg/injection, vehicle: saline.

As to `COc1ccc2c(c1OC)C(=O)O[C@@H]2[C@H]1c2c(cc3c(c2OC)OCO3)CCN1C`, the T/C runs as follows: under setting [1], 100 % of control and 105 % of control; under setting [2], 100 % of control and 116 % of control; under setting [3], 100 % of control and 116 % of control; under setting [4], 94 % of control and 100 % of control.
As for `CN(C)c1nc(N(C)C)nc(N(C)C)n1`, the T/C is, setting by setting: (dose: 18.8 mg/kg/injection, vehicle: saline) 105 % of control; (dose: 37.5 mg/kg/injection, vehicle: saline) 100 % of control; (dose: 75.0 mg/kg/injection, vehicle: saline) 100 % of control and 111 % of control; (dose: 150.0 mg/kg/injection, vehicle: saline) 105 % of control and 111 % of control.
For `O=c1[nH]cc(F)c(=O)[nH]1`, the T/C is 100 % of control (dose: 2.5 mg/kg/injection, vehicle: saline); 110 % of control (dose: 5.0 mg/kg/injection, vehicle: saline); 155 % of control (dose: 20.0 mg/kg/injection, vehicle: saline).
`Clc1ncnc2nc[nH]c12`: the T/C reads like this: (dose: 7.5 mg/kg/injection, vehicle: saline) 90 % of control; (dose: 15.0 mg/kg/injection, vehicle: saline) 95 % of control and 100 % of control; (dose: 30.0 mg/kg/injection, vehicle: saline) 86 % of control and 95 % of control; (dose: 60.0 mg/kg/injection, vehicle: saline) 86 % of control.
`CC(=O)NC1=C(N2CC2)C(=O)C(NC(C)=O)=C(N2CC2)C1=O`: the T/C is, setting by setting: (dose: 0.13 mg/kg/injection, vehicle: saline) 109 % of control; under setting [5], 177 % of control and 188 % of control; under setting [6], 109 % of control and 111 % of control.
For `Cc1c2oc3c(C)ccc(C(=O)N[C@@H]4C(=O)N[C@H](C(C)C)C(=O)N5CCC[C@H]5C(=O)N(C)CC(=O)N(C)[C@@H](C(C)C)C(=O)O[C@H]4C)c3nc-2c(C(=O)N[C@@H]2C(=O)N[C@H](C(C)C)C(=O)N3CCC[C@H]3C(=O)N(C)CC(=O)N(C)[C@@H](C(C)C)C(=O)O[C@H]2C)c(N)c1=O` (I: [aThr][dV]P[Sar][NMeV] / II: [aThr][dV]P[Sar][NMeV]; ester I:1-I:C, II:1-II:C; linker I:N-II:N via Actinocin(9to1)), the T/C runs as follows: (dose: 13.0 micrograms/kg/injection, vehicle: acid diluted with saline) 183 % of control; (dose: 25.0 micrograms/kg/injection, vehicle: acid diluted with saline) 103 % of control; (dose: 50.0 micrograms/kg/injection, vehicle: acid diluted with saline) 123 % of control.
For `S=P(N1CC1)(N1CC1)N1CC1`, the T/C is, setting by setting: under setting [6], 270 % of control; (dose: 2.0 mg/kg/injection, vehicle: saline) 90 % of control; under setting [7], 109 % of control.
With `Nc1ncnc2[nH]ncc12`, the T/C is 105 % of control (dose: 1.5 mg/kg/injection, vehicle: saline); 111 % of control and 115 % of control (dose: 3.0 mg/kg/injection, vehicle: saline); 95 % of control (dose: 6.0 mg/kg/injection, vehicle: saline); 95 % of control (dose: 12.0 mg/kg/injection, vehicle: saline).
Consider `Cc1cc2nc3c(=O)[nH]c(=O)nc-3n(CC(O)C(O)C(O)C(O)CO)c2cc1C` (centres undefined), for which the T/C reads like this: under setting [8], 95 % of control; under setting [9], 90 % of control and 95 % of control; under setting [10], 90 % of control and 100 % of control; under setting [11], 90 % of control and 100 % of control.
For `COc1cc(-c2ccc(Nc3ccccc3C(=O)O)c(OC)c2)ccc1Nc1ccccc1C(=O)O`, the T/C is 111 % of control (dose: 12.5 mg/kg/injection, vehicle: saline); 120 % of control and 122 % of control under setting [8]; 105 % of control under setting [11].
For the compound `CCN(CC)CCNc1ccc(C)c2sc3ccccc3c(=O)c12`, the T/C under setting [8] was 116 % of control and 122 % of control; the T/C under setting [9] was 105 % of control; the T/C under setting [10] is 111 % of control.
Turning to `NC(=O)N(CCCl)N=O`, the T/C runs as follows: under setting [5], 300 % of control; under setting [6], 158 % of control and 230 % of control; under setting [7], 110 % of control.
Turning to `CCCSc1ncnc2nc[nH]c12`, the T/C runs as follows: under setting [1], 105 % of control and 111 % of control; under setting [2], 105 % of control and 111 % of control; under setting [3], 105 % of control; under setting [4], 88 % of control.
Regarding `Cc1cn(C2OC(CO)C(O)C2O)c(=O)[nH]c1=O` (centres undefined), the T/C was 105 % of control under setting [2]; 111 % of control under setting [3]; 105 % of control under setting [4]; 111 % of control (dose: 500.0 mg/kg/injection, vehicle: saline).

The values above are taken from PubChem BioAssay AID304 (DTP/NCI, 2004).
